Patent US5702934A, “Processes for producing an enzyme” (priority 1993, dated 1997)
Where two headings read alike, the source gives them in different places.

Experiments:
[1] = target: T1, Fusarium oxysporum p45 proteolytic enzyme (p45 maturase, metalloprotease), SEQ ID NO:6 (Fusarium oxysporum, UniProt M1UZ70); type: biochemical
T1 construct: apparently native maturase from F. oxysporum; recombinant p45 also made in A. oryzae
Protocol: (§1) The tryptic activity is measured in microtiter plates; 100 μl samples are mixed with 100 μl of substrate (Stock: 87 mg/ml L-BAPNA (Sigma) in DMSO, diluted 50-fold in buffer) and the absorption at 405 nm is measured using a Thermomax microplate reader from Molecular Devices.
(§2) Metalloproteases contain a catalytic zinc metal center which participates in the hydrolysis of the peptide backbone. The active zinc center differentiates these proteases from calpains whose activities are dependent upon the presence of calcium. Confirmation of a protease as a metallo-protease is loss of proteolytic activity accomplished by removal of the zinc center with 1,10-phenanthroline (1 mM) followed by titration with Zn^2+ (0.1-100μM) to restore full activity.

[2] = target: T2, trypsin-like Fusarium oxysporum protease (F. oxysporum DSM 2672), SEQ ID NO: 2 (Fusarium oxysporum, UniProt P35049); experiment: Tryptic activity (L-BAPNA) of the trypsin-like protease with or without 1,10-phenanthroline; type: biochemical
T2 construct: made in house; host or cells: Aspergillus oryzae IFO 4177 transformed with pSX183
Protocol: as §1, §2

[3] = target: pro-trypsin-like Fusarium oxysporum protease (recombinant proenzyme form of the trypsin-like F. oxysporum protease) (Fusarium oxysporum DSM 2672)

## c1cnc2c(c1)ccc1cccnc12 [1,10-phenanthroline]
[1]; 1 mM 1,10-phenanthroline
  Maturase activity upon addition of inhibitor (in words): halted
[1]; 1,10-phenanthroline 1 mM, no Zn2+, without inhibitor 54.0, proenzyme alone 1.26
  Tryptic Activity (Δ Abs/min × 10^-4) released by p45 Maturase from pro-trypsin-like F. oxysporum protease: 2.9 Δ Abs/min × 10^-4
[2]; 1,10-phenanthroline 1 mM
  inhibition of the trypsin-like protease (in words): not inhibited
[2]; 1,10-phenanthroline 1 mM, no Zn2+, without inhibitor 34.0
  Tryptic Activity (Δ Abs/min × 10^-4): 33.8 Δ Abs/min × 10^-4
[2]; 1,10-phenanthroline (1 mM), without inhibitor 34.0×10^-4
  tryptic activity with inhibitor addition: 33.8×10^-4 ΔAbs/min

## O=C(O)CN(CCN(CC(=O)O)CC(=O)O)CC(=O)O [EDTA]
[1]; EDTA 1 mM substituted for 1,10-phenanthroline
  Maturase activity upon addition of inhibitor (in words): Analogous results

## p45 proteolytic enzyme (maturase) from Fusarium oxysporum
[3]
  Tryptic Activity (Δ Abs/min × 10^-4) released from the proenzyme, L-BAPNA assay: 0.0054 Δ Abs/min
